# Key:
# CD45^+ brain cells = test: γH2AX (flow cytometry, immunofluorescence) and annexin V in brain after systemic busulfan conditioning; assay type: in vivo, mice
# Method: FIGS. 15A15-C depict identification of brain-resident putative μ progenitors by BU-susceptibility. […] Inset is a representative laser-scanning confocal microscope photomicrographs of co-immunostaining for γH2AX, neurons (NeuN), microglia (Ibal) or astrocytes (GFAP). Sca1e bar=[…]. Images were acquired at confocal microscope Radiance 2100 (Bio-Rad) 1×70 at magnification 20× and processed by the Soft Work 3.5.0; reconstruction was performed with Adobe Photoshop CS 8.0 software. Magnification 40× in the insets.
# Previous studies have provided evidence for the existence of i) a functionally defined microglia precursor population located in the brain and susceptible to ablation upon administration of a busulfan-based conditioning and that may coincide with endogenous CNS-resident microglial progenitors (μP). Phosphorylated histone 2AX (γH2AX) is a sensitive and specific biomarker to track the cells targeted by busulfan in the brain. Thus, functional brain resident μP could be identified by taking advantage of busulfan and γH2AX, which is a pharmacodynamic marker of its cytotoxicity within these cells. γH2AX was investigated as a biomarker of busulfan cytotoxicity. In particular, the presence, distribution and cellular localization of γH2AX were studied by flow cytometry (FC) and immunofluorescence (IF) on brain slices from mice treated with systemic busulfan conditioning. […] By IF, γH2AX was hardly detectable in control mice, except for some γH2AX^+ foci found in few neuronal cells, mainly localized in the hippocampus (FIG. 16C top picture), where a correlation between physiological neuronal activity and H2AX phosphorylation has previously been shown. […] Similar experiments are on going in mice expressing reporter genes expressed by the promoter of markers of hematopoietic stem cell- and microglia-specific genes, such as Fgd5 or Cx3Cr1 in order to better track busulfan-susceptible cells.
# [1] = system: bone marrow and brain clonogenic cells; test: Colony forming unit (CFU) output of bone marrow and brain cells after conditioning; assay type: in vivo, mice; conditions: busulfan conditioning, 14 days after plating
# Method: FIG. 6A depicts an experimental scheme for HCT. CFUs were plated from bone marrow (BM) and brain of naïve (UT), BU-treated and irradiated (IRR) mice, as well as from mice previously transplanted with CD45.2 GFP-transduced HSPCs (BU-HCT). FIG. 6B is a graph depicting number of colonies (#CFC) obtained from the tissues of BU and IRR animals. FIG. 6C is a graph depicting number of colonies (#CFC) and of GFP^+ CFCs obtained from the tissues of BU-HCT animals. FIG. 6D is a graph depicting frequency of GFP^+ cells (and lineage differentiation for BM) retrieved by FACS analysis in BM and brain of secondary recipient mice receiving BM or brain cells or peripheral blood mononuclear cells from primary recipients; mice were sacrificed 4 months after transplant.
# HSPCs have been identified within extramedullary tissues and thought to be transiently localized at those sites and able to proliferate locally giving rise to tissue-resident myeloid cells, preferentially dendritic cells. Clonogenic potential was referred to the presence of these cells also in the brain, however upon establishment of parabiotic pairs and differently from what observed in other extra-medullary tissues, chimerism between the two animals was not observed in the brain. […]
# brain-resident μP = test: Intra-brain (ICV) administration of busulfan through a cannula in the lateral ventricles
# [2] = system: microglia progenitors, CD45^+c-kit^+ cells; test: Pretreatment to induce microglia progenitor proliferation; assay type: in vivo, mice; conditions: single dose of busulfan 25 mg/kg or ten days oral CSF 1R inhibitor
# Method: These NP formulations were injected ICV in the brain of wild type adult animals that were pretreated with i) a single dose of busulfan 25 mg/kg or ii) ten days of oral administered CSF 1R inhibitor ((Elmore et al., Neuron. […] Five days after NP injection, animals were analyzed for the occurrence of Etoposide-mediated killing of microglia cells and/or their progenitors, using busulfan standard treatment (4 doses of 25 mg/kg) as reference for brain microglia progenitor ablation.
compound,measurement,setting,value
CS(=O)(=O)OCCCCOS(C)(=O)=O [busulfan],early apoptosis by annexin V staining,"CD45^+ brain cells; CD45^+ brain cells, particularly CD11b^+ and c-kit^+, post-busulfan",early apoptosis is also detected
same,γH2AX signal by immunofluorescence on brain slices,"CD45^+ brain cells; busulfan-treated mice, lateral ventricles, SVZ, RMS",γH2AX^+ signal was increased in nuclei of cells lining the lateral ventricles
same,γH2AX signal by flow cytometry,"CD45^+ brain cells; busulfan-treated versus control untreated, live CD45^+ cells, 1 and 5 days from the last busulfan dose",increase of γH2AX signal
same,CFU output,[1],drastic reduction in the CFU output
same,neurotoxicity and local inflammation,brain-resident μP; ICV administration of busulfan,extensive neurotoxicity and local inflammation
same,transplanted HSPC engraftment,"brain-resident μP; ICV administration of busulfan, data not shown",nor able to favor transplanted HSPC engraftment
same,exposure of brain-resident μP to busulfan versus systemic drug administration,"brain-resident μP; ICV administration, different busulfan formulations, data not shown",not able to guarantee exposure of brain-resident μP to busulfan levels comparable to those reached by systemic drug administration
same,proliferation of microglia progenitors / expansion of CD45^+c-kit^+ cells in brain,[2],induce the proliferation of microglia progenitors and/or expand CD45^+c-kit^+ cells in the brain
